Data: patent US8153808B2, “Dihydropyridone amides as P2X7 modulators” (Roche Palo Alto LLC, priority 2008, dated 2012)

Molecular target: T1, P2X7 (UniProt Q99572)
T1 sequence (Q99572 1-595): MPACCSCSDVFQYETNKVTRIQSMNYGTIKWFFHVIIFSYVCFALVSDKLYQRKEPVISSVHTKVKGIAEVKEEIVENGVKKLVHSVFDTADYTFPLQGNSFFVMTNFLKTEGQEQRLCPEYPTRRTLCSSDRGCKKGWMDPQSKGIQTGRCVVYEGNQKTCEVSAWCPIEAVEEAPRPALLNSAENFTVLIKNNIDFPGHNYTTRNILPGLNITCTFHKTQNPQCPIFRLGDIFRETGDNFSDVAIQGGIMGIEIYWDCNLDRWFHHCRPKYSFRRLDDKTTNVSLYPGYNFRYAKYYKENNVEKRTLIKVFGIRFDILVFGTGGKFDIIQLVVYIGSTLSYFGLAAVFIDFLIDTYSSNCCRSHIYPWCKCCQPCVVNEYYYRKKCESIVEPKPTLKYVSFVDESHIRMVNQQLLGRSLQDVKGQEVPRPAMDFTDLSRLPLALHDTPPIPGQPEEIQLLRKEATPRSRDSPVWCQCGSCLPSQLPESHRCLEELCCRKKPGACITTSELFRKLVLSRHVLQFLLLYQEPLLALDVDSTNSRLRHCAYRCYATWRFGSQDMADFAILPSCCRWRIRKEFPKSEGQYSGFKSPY
Assay: pIC50 values for P2X7 (Table 1)
Format: cell-based
Description: Intracellular Calcium Flux (FLIPR) Assay
Stock solutions of compounds were prepared from powders as a 10 mM DMSO stock solution. These solutions were stored at RT during the two week period of these experiments to prevent freeze-thaw of the DMSO stocks. The DMSO stocks were added to the appropriate assay buffer at a concentration of 10 μM, and then diluted serially to the final concentrations that were tested. […] The aqueous solutions of compounds as well as ATP (Sigma A7699) and BzATP (Sigma B6396) were prepared fresh for each day of experiment.
1321N1 cells stably expressing the full length human P2X7 gene (1321N1-hP2X7) and HEK293 cells stably expressing the full length rat P2X7 gene (HEK293-rP2X7) were obtained from the Roche Cell Culture Facility. 1321N1-hP2X7 cells were grown in Dulbecco's Modified Eagle's Medium (DMEM) high glucose supplemented with 10% FBS and 250 μg/mL G418. HEK293-rP2X7 cells were grown in DMEM/F-12 supplemented with 10% FBS, 1 mM CaCl2, 2 mM MgCl2, 2 mM L-Glutamine and 500 μg/ml G418. Cells were split such that they never became >70% confluent.
On the day prior to the experiment, 1321N1-hP2X7 or HEK293-rP2X7 cells were released into suspension with calcium-free PBS+Versene and washed by centrifugation with calcium-free PBS to remove the Versene. Cells were resuspended in growth medium at a density of 2.5×10^5 cells/mL and seeded into black walled, clear bottom 96 well plates (50,000 cells/well) approximately 18 hr prior to intracellular calcium flux experiments.
On the day of the experiment, plates were washed with FLIPR buffer (calcium- and magnesium-free Hank's Balanced Salt Solution (HBSS) supplemented with 10 mM Hepes, 2.5 mM probenecid and 2 mM calcium chloride) using a BIO-TEK 96 channel plate washer and incubated with […] fluo-3 dye at 37° C. for one hr. The dye was then removed by plate washing and the cells were allowed to equilibrate for 20 min at room temperature with antagonist or vehicle (FLIPR buffer). Agonist (100 μM BzATP final concentration for hP2X7; 5 μM BzATP final concentration or rP2X7) was added online with the FLIPR and fluorescence measurements made at 1 sec intervals for 60 sec followed by 3 sec intervals for a further 4 min (5 min total). A final addition of 5 μM ionomycin was made and the maximal BzATP-evoked fluorescence normalized to the maximal ionomycin-evoked fluorescence.

| pIC50 P2X7 | Structure (SMILES) |
| --- | --- |
| 5.45 | COc1cc(Br)c(CC(=O)N2C=CC(=O)CC2C(C)C)cc1OC (stereo not drawn) [Compound 9, 1-[2-(2-Bromo-4,5-dimethoxy-phenyl)-acetyl]-2-isopropyl-2,3-dihydro-1H-pyridin-4-one] |
| 7.31 | O=C1C=CN(C(=O)Cc2cc(OCCO)c(F)cc2Br)[C@H](c2ccc(F)cc2)C1 [Compound 46, (S)-1-{2-[2-Bromo-4-fluoro-5-(2-hydroxy-ethoxy)-phenyl]-acetyl}-2-(4-fluoro-phenyl)-2,3-dihydro-1H-pyridin-4-one] |
| 6.59 | COc1cc(CC(=O)N2C=CC(=O)CC2c2ccc(F)cc2)c(Br)cc1C (stereo not drawn) [Compound 31, 1-[2-(2-Bromo-5-methoxy-4-methyl-phenyl)-acetyl]-2-(4-fluoro-phenyl)-2,3-dihydro-1H-pyridin-4-one] |
| 7.22 | COc1cc(Br)c(CC(=O)N2C=CC(=O)C[C@H]2c2ccccc2)cc1OC [Compound 13, (S)-1-[2-(2-Bromo-4,5-dimethoxy-phenyl)-acetyl]-2-phenyl-2,3-dihydro-1H-pyridin-4-one] |
| 6.97 | COc1cc(I)c(CC(=O)N2C=CC(=O)CC2c2ccc(F)cc2)cc1OC (stereo not drawn) [Compound 6, 2-(4-Fluoro-phenyl)-1-[2-(2-iodo-4,5-dimethoxy-phenyl)-acetyl]-2,3-dihydro-1H-pyridin-4-one] |
| 6.28 | COc1cc(Br)c(CC(=O)N2C=CC(=O)CC2c2cccc(Cl)c2)cc1OC (stereo not drawn) [Compound 25, 1-[2-(2-Bromo-4,5-dimethoxy-phenyl)-acetyl]-2-(3-chloro-phenyl)-2,3-dihydro-1H-pyridin-4-one] |
| 6.705 | COc1cc(Cl)c(CC(=O)N2C=CC(=O)C[C@H]2c2ccccc2)cc1OC [Compound 14, (S)-1-[2-(2-Chloro-4,5-dimethoxy-phenyl)-acetyl]-2-phenyl-2,3-dihydro-1H-pyridin-4-one] |
| 6.305 | COc1cc(Br)c(CC(=O)N2C=CC(=O)C[C@H]2c2ccc(F)cc2)cc1OC(F)F [Compound 24, (S)-1-[2-(2-Bromo-5-difluoromethoxy-4-methoxy-phenyl)-acetyl]-2-(4-fluoro-phenyl)-2,3-dihydro-1H-pyridin-4-one] |
| 6.425 | COc1cc(Br)c(CC(=O)N2C=CC(=O)CC2c2cccc(C)c2)cc1OC (stereo not drawn) [Compound 37, 1-[2-(2-Bromo-4,5-dimethoxy-phenyl)-acetyl]-2-m-tolyl-2,3-dihydro-1H-pyridin-4-one] |
| 6.55 | COc1cc(F)c(CC(=O)N2C=CC(=O)C[C@H]2c2cccc(F)c2)cc1OC [Compound 48, (S)-1-[2-(2-Fluoro-4,5-dimethoxy-phenyl)-acetyl]-2-(3-fluoro-phenyl)-2,3-dihydro-1H-pyridin-4-one] |
| 6.984 | COc1cc(I)c(CC(=O)N2C=CC(=O)CC2c2ccccc2)cc1OC (stereo not drawn) [Compound 1, 1-[2-(2-Iodo-4,5-dimethoxy-phenyl)-acetyl]-2-phenyl-2,3-dihydro-1H-pyridin-4-one] |
| 5.895 | O=C1C=CN(C(=O)Cc2cc(OC(F)F)c(OC(F)F)cc2Br)[C@H](c2ccc(F)cc2)C1 [Compound 26, (S)-1-[2-(2-Bromo-4,5-bis-difluoromethoxy-phenyl)-acetyl]-2-(4-fluoro-phenyl)-2,3-dihydro-1H-pyridin-4-one] |
| 6.18 | Cc1cc(Br)c(CC(=O)N2C=CC(=O)CC2c2ccc(F)cc2)cc1O (stereo not drawn) [Compound 33, 1-[2-(2-Bromo-5-hydroxy-4-methyl-phenyl)-acetyl]-2-(4-fluoro-phenyl)-2,3-dihydro-1H-pyridin-4-one] |
| 6.815 | COc1cc(Br)c(CC(=O)N2C=CC(=O)CC2c2cccc(F)c2)cc1OC (stereo not drawn) [Compound 35, 1-[2-(2-Bromo-4,5-dimethoxy-phenyl)-acetyl]-2-(3-fluoro-phenyl)-2,3-dihydro-1H-pyridin-4-one] |
| 6.08 | COc1cc(CC(=O)N2C=CC(=O)C[C@H]2c2ccc(F)cc2)c(Br)cc1OCC1CC1 [Compound 20, (S)-1-[2-(2-Bromo-4-cyclopropylmethoxy-5-methoxy-phenyl)-acetyl]-2-(4-fluoro-phenyl)-2,3-dihydro-1H-pyridin-4-one] |
